# Experimental data from patent US9283224B2, “Substituted pyrimidinyl-pyrroles active as kinase inhibitors” (NERVIANO MEDICAL SCIENCES S.R.L., priority 2012, dated 2016).
# Like-named read-outs stand apart in the source and are kept apart here.
# What was measured:
# [1] = tested on: JAK2 dependent human megakaryoblastic leukemia cell line SET-2; assay: Cell proliferation assay (CellTiter-Glo, 72 hours), SET-2; assay type: cell-based; conditions: for IC50: Homo sapiens, read-out: SET-2 IC50; for Ratio K-562 (IC50)/SET-2 (IC50): selectivity for JAK2 dependent SET-2 vs JAK2 independent K-562 cell line
# Experimental: (§1) the JAK2 dependent human megakaryoblastic leukemia cell line SET-2 (DSMZ, Braunschweig GERMANY), and JAK2 independent human chronic myelogenous leukaemia cell line K562 (ECACC, Wiltshire, UK) were cultured in RPMI-1640 medium-Glutamax (Gibco BRL, Gaithesburg, Md., USA), supplemented with 10% fetal bovine serum (FBS) at 37° C. and 5% CO2.
# (§2) Approximately 5×10^3 cells were plated into 384 microtiter plate wells in 50 μL of growth media with different concentrations of inhibitors. The cells were incubated at 37° C. and 5% CO2 for 72 hours, than the plates were processed using CellTiter-Glo assay (Promega, Madison, Wis., USA) following the manufacturer's instruction. Briefly 25 μL/well reagent solution are added to each wells and after 5 minutes shacking micro-plates are read by Envision luminometer (PerkinElmer, Waltham, Mass., USA).
# (§3) Data are analyzed by Symix Assay Explorer software (Symix Technologies Inc.) that provides sigmoidal fitting algorithm of the 8 points dilutions curves for […] determination.
# JAK2 kinase domain = target: T1, JAK2 kinase domain (Homo sapiens, UniProt O60674); assay: Biochemical assay for inhibitors of JAK2 kinase activity (33P-γ-ATP, dowex resin); conditions: 1 nM enzyme, 60 μM ATP, 60 minutes at room temperature
# T1 construct: commercially available JAK2 kinase domain (Invitrogen, Eugene, Oreg.); purchased Invitrogen, Eugene, Oreg
# T1 sequence (O60674 849-1124 limits assumed): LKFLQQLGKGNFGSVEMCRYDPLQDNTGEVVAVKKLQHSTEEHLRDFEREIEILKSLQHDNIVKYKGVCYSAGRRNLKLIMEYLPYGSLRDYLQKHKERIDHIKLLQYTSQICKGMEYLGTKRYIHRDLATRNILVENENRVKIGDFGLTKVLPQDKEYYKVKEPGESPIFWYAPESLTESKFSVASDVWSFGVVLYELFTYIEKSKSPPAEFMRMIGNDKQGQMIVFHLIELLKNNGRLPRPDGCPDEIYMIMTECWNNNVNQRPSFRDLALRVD
# Experimental: Specific JAK2, JAK1 or JAK3 peptide substrates are trans-phosphorylated by JAK kinases in the presence of ATP traced with 33P-γ-ATP. At the end of the phosphorylation reaction, the unreacted ATP, cold and radioactive, is captured by an excess of dowex ion exchange resin that eventually settles by gravity to the bottom of the reaction plate. The supernatant is subsequently withdrawn and transferred into a counting plate that is then evaluated by β-counting.
# 500 g of wet resin (SIGMA, custom prepared resin DOWEX 1×8 200-400 mesh, 2.5 Kg) is weighed out and diluted 2 to 1 in 150 mM sodium formate, pH 3.00. The resin is allowed to settle overnight and then the supernatant is discarded. After three washes as above over a couple of days, the resin is allowed to settle and two volumes (with respect to the resin volume) of 150 mM sodium formate buffer are added.
# Kinase buffer was composed of 50 mM HEPES pH 7.5 containing 10 mM MgCl2, 2.5 mM DTT, 10 μM Na3VO4 and 0.2 mg/mL BSA.
# The peptidic substrate was purchased from American Peptide Company (Sunnyvale, Calif.).
# An automated station for serial dilutions (Biomek FX, Beckman) is used for producing 1:3 dilutions in 100% DMSO, from line A1 to A10, and for all the compounds in the column.
# At the start of the run, the robot aspirates 5 μL of ATP mix, makes an air gap inside the tips (3 μl) and aspirates 5 μL of JAK2 mix. The following dispensation into the plates plus 3 cycles of mixing, done by the robot itself, starts the kinase reaction. At this point, the correct concentrations are restored for all the reagents. The robot incubates the plates for 60 minutes at room temperature, and then stops the reaction by pipetting 60 μL of dowex resin suspension into the reaction mix. In order to avoid tip clogging, wide bore tips are used to dispense the resin suspension. Three cycles of mixing are done immediately after the addition of the resin. Another mixing cycle is performed after all the plates are stopped, this time using normal tips: the plates are then allowed to rest for about one hour in order to allow resin sedimentation. At this point, 27 μL of the supernatant are transferred into 384-Optiplates (Perkin-Elmer), with 50 μL of Microscint 40 (Perkin-Elmer); after 5 min of orbital shaking the plates are read on a Perkin-Elmer Top Count radioactivity counter.
# Data are analyzed by an internally customized version of the SW package “Assay Explorer” that provides sigmoidal fitting of the ten-dilutions curves for IC50 determination in the secondary assays/hit confirmation routines.
# [2] = tested on: JAK2 independent human chronic myelogenous leukaemia cell line K562; assay: Cell proliferation assay (CellTiter-Glo, 72 hours), K562; assay type: cell-based; conditions: K562 cells, read-out: K-562 IC50
# Experimental: as §1, §2, §3
Structure (SMILES),"IC50 ([1]; SET-2 cells, 72 hours) [nM]",Ratio K-562 (IC50)/SET-2 (IC50) [1],IC50 (JAK2 kinase domain) [nM],IC50 [2] [nM],"IC50 ([1]; SET-2, 72 h) [nM]"
"NC(=O)c1cc(-c2ccnc(N)n2)[nH]c1-c1cc(C(F)(F)F)ccc1Cl [Cmpd. 1, 5-(2-Aminopyrimidin-4-yl)-2-[2-chloro-5-(trifluoromethyl)phenyl]-1H-pyrrole-3-carboxamide]",570,13,8,7500,
"NC(=O)c1cc(-c2ccnc(N)n2)[nH]c1-c1cc(Cl)ccc1Cl [Cmpd. 2, 5-(2-Aminopyrimidin-4-yl)-2-(2,5-dichlorophenyl)-1H-pyrrole-3-carboxamide]",700,9.8,12,6860,
"CCc1ccc(Cl)cc1-c1[nH]c(-c2ccnc(N)n2)cc1C(N)=O [Cmpd. 5, 5-(2-Aminopyrimidin-4-yl)-2-(5-chloro-2-ethylphenyl)-1H-pyrrole-3-carboxamide]",,,,5320,210
"CCc1ccc(C(F)(F)F)cc1-c1[nH]c(-c2ccnc(N)n2)cc1C(N)=O [Cmpd. 16, 5-(2-Aminopyrimidin-4-yl)-2-[2-ethyl-5-(trifluoromethyl)phenyl]-1H-pyrrole-3-carboxamide]",390,9.43,2,3680,
"CCc1ccc(Cl)cc1-c1[nH]c(-c2ccnc(N)n2)cc1C(=O)NC [Cmpd. 35, 5-(2-Aminopyrimidin-4-yl)-2-(5-chloro-2-ethylphenyl)-N-methyl-1H-pyrrole-3-carboxamide]",490,>20,9,> 10000,
"CCNC(=O)c1cc(-c2ccnc(N)n2)[nH]c1-c1cc(Cl)ccc1CC [Cmpd. 36, 5-(2-Aminopyrimidin-4-yl)-2-(5-chloro-2-ethylphenyl)-N-ethyl-1H-pyrrole-3-carboxamide]",610,>16,13,> 10000,
"CNC(=O)c1cc(-c2ccnc(N)n2)[nH]c1-c1cc(C(F)(F)F)ccc1Cl [Cmpd. 39, 5-(2-Aminopyrimidin-4-yl)-2-[2-chloro-5-(trifluoromethyl)phenyl]-N-methyl-1H-pyrrole-3-carboxamide]",630,>16,,> 10000,
"CNc1nccc(-c2cc(C(N)=O)c(-c3cc(Cl)ccc3C)[nH]2)n1 [Cmpd. 42, 2-(5-Chloro-2-methylphenyl)-5-[2-(methylamino)pyrimidin-4-yl]-1H-pyrrole-3-carboxamide]",,,,> 10000,
"CCc1ccc(C(F)(F)F)cc1-c1[nH]c(-c2ccnc(N)n2)cc1C(=O)NC [Cmpd. 51, 5-(2-Aminopyrimidin-4-yl)-2-[2-ethyl-5-(trifluoromethyl)phenyl]-N-methyl-1H-pyrrole-3-carboxamide]",310,>20,2,> 10000,
"Cc1ccc(Cl)cc1-c1[nH]c(-c2ccnc(N)n2)cc1C(N)=O [Ref. cmpd. (F25), 5-(2-amino-pyrimidin-4-yl)-2-(5-chloro-2-methyl-phenyl)-1H-pyrrole-3-carboxamide, reference compound]",,,,2000,430
